Reference: publication PMC10534582, “A Pharmacokinetic Study of Sixteen Major Bioactive Components of Jinshui-Huanxian Granules in Pulmonary Fibrosis Model and Control Rats Using Orbitrap Fusion Mass Spectrometry” (Molecules, 2023)
Like-named read-outs stand apart in the source and are kept apart here.

Assays:
[1] = Pharmacokinetics of JHG components in pulmonary fibrosis (PF) model rats after intragastric administration of JHGs (plasma, Orbitrap Fusion MS); format: in vivo, Sprague Dawley (SD) rats
Description: (§1) Healthy male Sprague Dawley (SD) rats of SPF grade (240 ± 20 g) were purchased from Sipeifu (Beijing, China) Biotechnology Co., Ltd. (Beijing, China), Certificate of Conformity No.: SCYK (Beijing, China) 2019-0015, Animal Quality Certificate No.: 110324220102348616. They were housed in the Animal Center of Henan University of Traditional Chinese Medicine, which passed the ethical audit, ethics number: DWLL202208003, breeding Co. 24 °C, relative humidity 50 ± 2%. The animals fasted for 12 h before the experiment and drank water freely. All feeding and experimental studies on experimental animals were in accordance with the regulations on the Management of Experimental Animals in Henan Province.
The PF model in rats was replicated by reference to the conclusion tracheal intubation method in the literature. After the rats were anesthetized, bleomycin (BLM) (5 mg/kg) was used as an induction agent and followed the tracheal intubation method. BLM solution was aspirated with a 1 mL syringe and injected into the indwelling syringe. A total of 0.3 mL of air was rapidly pushed into the syringe, the rats were immediately stroked upright so that the BLM solution was evenly distributed in both lungs. BLM was given on day 0 for modeling, then gavage was taken after day 28, with fasting without water for 12 h before sampling. The histopathological examination was performed to verify the construction of the PF model. The rats were anesthetized by the abdominal cavity, then the lung tissues were violently shocked by opening the chest, and the right lower lobe of the lung was taken and fixed in 4% formaldehyde solution, then dehydrated by sucrose gradient, paraffin-embedded, and sectioned. H&E and Masson staining were performed to observe the degree of alveolitis of lung tissue and the degree of pulmonary fibrosis, respectively. The inflammation and fibrosis of lung tissues was observed under the light microscope.
(§2) Twenty-four healthy male SD rats or PF model rats, weighing 240 ± 20 g, fasted for 12 h before the experiment and drank water freely. Both kinds of rats were randomly divided into four groups. Blank group: equal dose of water by intragastric, low dose; administration group: rats were given the equivalent human dose of JHGs by intragastric, i.e., 10.8 g of raw drug/kg/d (5.70 g/kg/d); medium-dose administration group: 2 times the human equivalent dose of JHGs by intragastric, i.e., 21.6 g of raw drug/kg/d (11.41 g/kg/d); high-dose administration group: 4 times the human equivalent dose of JHG, i.e., 43.2 g of raw drug/kg/d (22.81 g/kg/d). Blood was collected from the tail vein before and 0.083, 0.25, 0.5, 0.75, 1, 1.5, 2, 3, 4, 6, 8, 12, 18, and 24 h after dosing, respectively. A total of 0.5 mL was placed in a heparin sodium centrifuge tube. Whole blood was left for 30 min and then centrifuged in a low-temperature freezing centrifuge (4 °C, 3000 r/min) for 15 min. The upper layer of plasma was collected and stored in a refrigerator at −80 °C.
(§3) We added 50 μL of internal standard solution and 800 μL of methanol, shook for 15 min, then centrifuged at 12,000 r/min for 10 min, took the supernatant, dried in a centrifuge concentrator, added 50 μL of the initial mobile phase to the residue, dissolved, centrifuged, then separated the upper layer of the solution used as the test solution. A total of 5 μL test solution was taken into the sample for analysis. For each compound with a certain dosage, the same procedure is repeated six times in parallel. The concentration in plasma was calculated by the internal standard method.
Accucore C18 (100 mm × 2.1 mm, 2.6 μm) column at 25 °C, the mobile phase was methanol (A)-0.1% formic acid aqueous solution (B). The gradient elution program was 0–4 min (65% B-40% B), 4–5 min (40% B-40% B), 5–6 min (40% B-28% B), and 6–7 min (28% B-19% B), 7–7.5 min (19% B-10% B), 7.5–11 min (10% B-0% B), the flow rate was 0.2 mL/min, and the injection volume was 5 μL. […]

[2] = Pharmacokinetics of JHG components in control rats after intragastric administration of JHGs (plasma, Orbitrap Fusion MS); format: in vivo, Sprague Dawley (SD) rats; conditions: for pharmacokinetic process (Cmax and AUCs versus dosage): low, medium, high doses of JHGs; for Tmax / AUC(0-inf) / AUC(0-t) / half-life / MRT last / MRT inf / Cmax: male, rat, plasma, po; for MRT last: read-out: MRT(0-t); for MRT inf: read-out: MRT(0-∞); for Cmax: intragastric JHGs
Description: as §1, §2, §3
Accucore C18 (100 mm × 2.1 mm, 2.6 μm) column at 25 °C, the mobile phase was methanol (A)-0.1% formic acid aqueous solution (B). The gradient elution program was 0–4 min (65% B-40% B), 4–5 min (40% B-40% B), 5–6 min (40% B-28% B), and 6–7 min (28% B-19% B), 7–7.5 min (19% B-10% B), 7.5–11 min (10% B-0% B), the flow rate was 0.2 mL/min, and the injection volume was 5 μL.
The ion source was an electrospray ionization source (ESI). Nitrogen acted as a carrier gas. The sheath gas pressure was 35 Arb. The auxiliary gas pressure was 7 Arb. The spray voltage was 3.50 kv(+), 2.50 kv(-). The ion transport tube temperature was regulated at 300 °C. Gasification temperature was 275 °C. The resolution was 50,000. The scanning mode was set as SIM mode. The optimized parameters obtained are in Table 5.
Under the established Orbitrap Fusion MS method, the pharmacokinetics of JHG in rats were studied to investigate the dynamic changes of the active components in rats. The pharmacokinetic parameters of each component in each dosing group were calculated by […] model analysis using Kinetica 5.1 (Innaphase, Waltham, MA, USA) pharmacokinetic analysis software. The pharmacotemporal curves were plotted by the plotting software. SPSS 19.0 (IBM, Armonk, NY, USA) was used to analyze all the parameters. Independent sample tests were performed after natural logarithmic transformation for AUC0–t, Cmax. The nonparametric Mann–Whitney test was applied for Tmax, t½, and MRT0–t. p < 0.05 was considered statistically significant.

[3] = Sprague Dawley, 5.7 g/kg/day, JHGs low dose 5.70 g/kg/d
[4] = Sprague Dawley, 5.7 g/kg/day, JHGs low dose 5.70 g/kg/d, read-out: Tmax
[5] = Sprague Dawley, 5.7 g/kg/day, low dose 5.70 g/kg/d, n=6 (1st of 3 stacked values)
[6] = Sprague Dawley, 11.41 g/kg/day, JHGs medium dose 11.41 g/kg/d
[7] = Sprague Dawley, 11.41 g/kg/day, JHGs medium dose 11.41 g/kg/d, read-out: Tmax
[8] = Sprague Dawley, 11.41 g/kg/day, medium dose 11.41 g/kg/d, n=6 (2nd of 3 stacked values)
[9] = Sprague Dawley, 22.81 g/kg/day, JHGs high dose 22.81 g/kg/d
[10] = Sprague Dawley, 22.81 g/kg/day, JHGs high dose 22.81 g/kg/d, read-out: Tmax
[11] = Sprague Dawley, 22.81 g/kg/day, high dose 22.81 g/kg/d, n=6 (3rd of 3 stacked values)

SMILES	pharmacokinetic process (Cmax and AUCs versus dosage) [2]	MRT(0–t), PF model group compared with the control group ([1]; PF model vs control rats)	Clearances ([2]; JHGs high dose 22.81 g/kg/d) [mL/min/kg]	Vss ([2]; JHGs high dose 22.81 g/kg/d) [L]	Clearances ([2]; JHGs low dose 5.70 g/kg/d) [mL/min/kg]	Vss ([2]; JHGs low dose 5.70 g/kg/d) [L]	Clearances ([2]; JHGs medium dose 11.41 g/kg/d) [mL/min/kg]	Vss ([2]; JHGs medium dose 11.41 g/kg/d) [L]	AUC(0-inf) [2, 3] [ng·h/mL]	AUC(0-t) [2, 3] [ng·h/mL]	half-life [2, 3] [h]	MRT last [2, 3] [h]	MRT inf [2, 3] [h]	Tmax [2, 4] [h]	Cmax [2, 5] [ng/mL]	AUC(0-inf) [2, 6] [ng·h/mL]	AUC(0-t) [2, 6] [ng·h/mL]	half-life [2, 6] [h]	MRT last [2, 6] [h]	MRT inf [2, 6] [h]	other results
COc1ccc(-c2oc3c(CC=C(C)C)c(O[C@@H]4O[C@H](CO)[C@@H](O)[C@H](O)[C@H]4O)cc(O)c3c(=O)c2O[C@@H]2O[C@@H](C)[C@H](O)[C@@H](O)[C@H]2O)cc1 [Icariin]	linear pharmacokinetic process	–	–	–	–	–	–	–	–	–	–	–	–	–	–	–	–	–	–	–	Tmax ([1]; male, Sprague-Dawley, rat, plasma, po, PF model rats, after administration of JHGs, read-out: Tmax of all dosages): ≤ 2 h; Tmax ([2]; Sprague-Dawley, after administration of JHGs, read-out: Tmax of all dosages): ≤ 2 h
COc1cc(O)c2c(c1)oc(=O)c1c3cc(O)c(O)cc3oc21 [Wedelolactone]	–	decreased	0.1 ± 0	0.07 ± 0.01	0.05 ± 0.017	0.04 ± 0	0.05 ± 0	0.03 ± 0.01	139 ± 45.6	110 ± 24.7	10.7 ± 3.69	7.52 ± 0.34	14 ± 3.66	2	18.6 ± 3.98	276 ± 35.6	242 ± 32.4	8.01 ± 1.33	8.23 ± 0.18	11.6 ± 1.32	pharmacokinetic process (versus dosage) ([1]; PF model rats, low, medium, high doses of JHGs): linear pharmacokinetic process; Tmax [2, 7]: 3.67 ± 0.58 h; Cmax [2, 8]: 27.8 ± 2.35 ng/mL; AUC(0-inf) [2, 9]: 262 ± 13.5 ng·h/mL; AUC(0-t) [2, 9]: 221 ± 17.2 ng·h/mL; half-life [2, 9]: 8.2 ± 0.63 h; MRT last [2, 9]: 7.5 ± 0.21 h; MRT inf [2, 9]: 12 ± 1.32 h; Tmax [2, 10]: 1.83 ± 0.29 h; Cmax [2, 11]: 35.4 ± 2.29 ng/mL
CC1CCC2N(C1)CC1C3CC4C(CC(O)C5CC(O)CCC54C)C3CCC1C2(C)O (centres unmarked) [Peimine]	linear pharmacokinetic process	decreased	88.7 ± 12.2	60.06 ± 7.12	31 ± 7.83	131.39 ± 53.45	75.5 ± 9.5	61.2 ± 9.95	24.7 ± 5.52	7.38 ± 2.13	52.1 ± 30.7	11.1 ± 0.12	75.3 ± 41.8	4	0.57 ± 0.22	17.6 ± 2.24	14.6 ± 1.9	8.02 ± 0.39	8.8 ± 0.32	13.5 ± 0.58	Tmax [2, 7]: 3.33 ± 0.58 h; Cmax [2, 8]: 1.49 ± 0.26 ng/mL; AUC(0-inf) [2, 9]: 29.9 ± 4.92 ng·h/mL; AUC(0-t) [2, 9]: 26.6 ± 4.11 ng·h/mL; half-life [2, 9]: 7.23 ± 0.62 h; MRT last [2, 9]: 8.43 ± 0.11 h; MRT inf [2, 9]: 11.3 ± 0.63 h; Tmax [2, 10]: 2.67 ± 0.58 h; Cmax [2, 11]: 2.53 ± 0.56 ng/mL
OC[C@H]1O[C@@H](O[C@@H]2OC=C[C@H]3[C@H](O)[C@@H]4O[C@]4(CO)[C@@H]23)[C@H](O)[C@@H](O)[C@@H]1O [Catalpol]	–	–	–	–	–	–	–	–	–	–	–	–	–	–	–	–	–	–	–	–	Cmax, PF model group compared with the control group ([1]; PF model vs control rats, medium dose selected for comparison): significantly decreased
